Our source for the pest or weed control and melting point values is US6784137B2, “6-aryl-4-aminopicolinates and their use as herbicides” (Dow AgroSciences LLC, priority 2001, dated 2004).

In one series the test system is Barnyardgrass (Echinochloa crus-galli). Description: Postemergence herbicidal activity, greenhouse spray. To be noted: Echinochloa crus-galli, post-emergence, 336 h, Table 1; rate 500 ppm; visual score after 2 weeks; read-out: Post-emergent % control ECHCG. It is filed as in vivo. The essentials:
(§1)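 Plants grown 7-21 days in a greenhouse (~15 hr photoperiod, about 23-29° C day/22-28° C night) and treated at the first or second true leaf stage. Compounds in acetone:DMSO 97:3 were diluted into an aqueous acetone/isopropyl alcohol/crop oil/Triton X-155 carrier and sprayed to thorough coverage. Controls received carrier alone.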
As for `Nc1c(Cl)c(C(=O)O)nc(-c2ccc(Cl)cc2)c1Cl` [Compound 198, 4-Amino-3,5-dichloro-6-(4-chlorophenyl)pyridine-2-carboxylic acid], the pest or weed control at 500 ppm was 90%.

In the case of `COC(=O)c1nc(-c2ccc(Cl)cc2F)c(F)c(N)c1F` [Compound 93, Methyl 4-amino-3,5-difluoro-6-(4-chloro-2-fluorophenyl)pyridine-2-carboxylate], the pest or weed control at 500 ppm worked out at 90%.

The same series, now with this note: Echinochloa crus-galli, post-emergence, 336 h, Table 2; rate 125 ppm; visual score after 2 weeks; read-out: Post-emergent % control ECHCG.
For the compound `Nc1c(Cl)c(C(=O)O)nc(-c2ccc(Cl)cc2)c1Cl` [Compound 198, 4-Amino-3,5-dichloro-6-(4-chlorophenyl)pyridine-2-carboxylic acid], the pest or weed control at 125 ppm turned out to be 70%.

Regarding `Nc1c(F)c(-c2ccc(Cl)cc2F)nc(C(=O)O)c1Cl` [Compound 189, 4-Amino-3-chloro-5-fluoro-6-(4-chloro-2-fluorophenyl)pyridine-2-carboxylic acid], the pest or weed control at 125 ppm was found to be 90%.

The test system of another series is Yellow nutsedge (Cyperus esculentus). The series is described as above. It is filed as in vivo. To be noted: Cyperus, post-emergence, 336 h, Table 1; rate 500 ppm; visual score after 2 weeks; read-out: Post-emergent % control CYPES. The essentials: as §1
For the compound `Nc1c(Cl)c(C(=O)O)nc(-c2ccc(Cl)cc2)c1Cl` [Compound 198, 4-Amino-3,5-dichloro-6-(4-chlorophenyl)pyridine-2-carboxylic acid], the pest or weed control at 500 ppm is 90%.

Regarding `COC(=O)c1nc(-c2ccc(Cl)cc2F)c(F)c(N)c1F` [Compound 93, Methyl 4-amino-3,5-difluoro-6-(4-chloro-2-fluorophenyl)pyridine-2-carboxylate], the pest or weed control at 500 ppm came to 80%.

The series is the same for the next values; noted with them: Cyperus, post-emergence, 336 h, Table 2; rate 125 ppm; visual score after 2 weeks; read-out: Post-emergent % control CYPES.
Turning to `Nc1c(Cl)c(C(=O)O)nc(-c2ccc(Cl)cc2)c1Cl` [Compound 198, 4-Amino-3,5-dichloro-6-(4-chlorophenyl)pyridine-2-carboxylic acid], the pest or weed control at 125 ppm was determined as 98%.

With `Nc1c(F)c(-c2ccc(Cl)cc2F)nc(C(=O)O)c1Cl` [Compound 189, 4-Amino-3-chloro-5-fluoro-6-(4-chloro-2-fluorophenyl)pyridine-2-carboxylic acid], the pest or weed control at 125 ppm was 90%.

The subject of another series is Cocklebur (Xanthium strumarium). The series is described as above. It is filed as in vivo. To be noted: Xanthium strumarium, post-emergence, 336 h; Table 1; rate 500 ppm; visual score after 2 weeks, 0 no injury, 100 complete kill; read-out: Post-emergent % control XANST. Summed up: as §1
As for `Nc1c(Cl)c(C(=O)O)nc(-c2ccc(Cl)cc2)c1Cl` [Compound 198, 4-Amino-3,5-dichloro-6-(4-chlorophenyl)pyridine-2-carboxylic acid], the pest or weed control at 500 ppm turned out to be 100%.

Turning to `COC(=O)c1nc(-c2ccc(Cl)cc2F)c(F)c(N)c1F` [Compound 93, Methyl 4-amino-3,5-difluoro-6-(4-chloro-2-fluorophenyl)pyridine-2-carboxylate], the pest or weed control at 500 ppm amounted to 100%.

Still in this series, the particulars now being: Xanthium strumarium, post-emergence, 336 h; Table 2; rate 125 ppm; visual score after 2 weeks; read-out: Post-emergent % control XANST.
Consider `Nc1c(Cl)c(C(=O)O)nc(-c2ccc(Cl)cc2)c1Cl` [Compound 198, 4-Amino-3,5-dichloro-6-(4-chlorophenyl)pyridine-2-carboxylic acid], for which the pest or weed control at 125 ppm was 100%.

Take `Nc1c(F)c(-c2ccc(Cl)cc2F)nc(C(=O)O)c1Cl` [Compound 189, 4-Amino-3-chloro-5-fluoro-6-(4-chloro-2-fluorophenyl)pyridine-2-carboxylic acid]: the pest or weed control at 125 ppm turned out to be 90%.

The next series has as its system Lambsquarter (Chenopodium album). The description is as above. It is filed as in vivo. The note with it: Chenopodium album, post-emergence, 336 h; Table 1; rate 500 ppm; visual score after 2 weeks; read-out: Post-emergent % control CHEAL. The essentials: as §1
As for `Nc1c(Cl)c(C(=O)O)nc(-c2ccc(Cl)cc2)c1Cl` [Compound 198, 4-Amino-3,5-dichloro-6-(4-chlorophenyl)pyridine-2-carboxylic acid], the pest or weed control at 500 ppm is 100%.

As for `COC(=O)c1nc(-c2ccc(Cl)cc2F)c(F)c(N)c1F` [Compound 93, Methyl 4-amino-3,5-difluoro-6-(4-chloro-2-fluorophenyl)pyridine-2-carboxylate], the pest or weed control at 500 ppm turned out to be 95%.

The series is the same for the next values; noted with them: Chenopodium album, post-emergence, 336 h; Table 2; rate 125 ppm; visual score after 2 weeks; read-out: Post-emergent % control CHEAL.
On to `Nc1c(Cl)c(C(=O)O)nc(-c2ccc(Cl)cc2)c1Cl` [Compound 198, 4-Amino-3,5-dichloro-6-(4-chlorophenyl)pyridine-2-carboxylic acid], for which the pest or weed control at 125 ppm is 100%.

As to `Nc1c(F)c(-c2ccc(Cl)cc2F)nc(C(=O)O)c1Cl` [Compound 189, 4-Amino-3-chloro-5-fluoro-6-(4-chloro-2-fluorophenyl)pyridine-2-carboxylic acid], the pest or weed control at 125 ppm was 90%.

Another series relates to Pigweed (redroot) (Amaranthus retroflexus). In words: Preemergence herbicidal activity, soil spray. The format is in vivo. To be noted: Amaranthus retroflexus, pre-emergence, 504 h; Table 5; rate 140 ppm; visual score after 3 weeks; read-out: Pre-emergent % control AMARE. The essentials:
(§2)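 Seeds sown in loam/sand (70:30) soil, pH ~8.1, ~1.5% organic matter; compounds in acetone/DMSO (97:3), diluted in water with 0.1% Tween 155, sprayed onto the soil surface before emergence. Pots kept in greenhouse, ~15 h photoperiod, about 23-29° C day/22-28° C night, top-irrigated.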
As for `Nc1c(F)c(-c2ccc(Cl)cc2F)nc(C(=O)O)c1Cl` [Compound 189, 4-Amino-3-chloro-5-fluoro-6-(4-chloro-2-fluorophenyl)pyridine-2-carboxylic acid], the pest or weed control at 140 ppm is 100%.

The series is the same for the next values; noted with them: Amaranthus retroflexus, pre-emergence, 504 h; Table 5; rate 560 ppm; visual score after 3 weeks; read-out: Pre-emergent % control AMARE.
`Nc1c(Cl)c(C(=O)O)nc(-c2ccc(Cl)cc2)c1Cl` [Compound 198, 4-Amino-3,5-dichloro-6-(4-chlorophenyl)pyridine-2-carboxylic acid]: the pest or weed control at 560 ppm was determined as 100%.

As for `COC(=O)c1nc(-c2ccc(Cl)cc2F)c(F)c(N)c1F` [Compound 93, Methyl 4-amino-3,5-difluoro-6-(4-chloro-2-fluorophenyl)pyridine-2-carboxylate], the pest or weed control at 560 ppm came to 100%.

The next series has as its system Giant Foxtail (Setaria faberi). In words: Preemergence herbicidal activity, soil spray. The format is in vivo. The note with it: Setaria faberi, pre-emergence, 504 h, Table 5; rate 140 ppm; visual score after 3 weeks; read-out: Pre-emergent % control SETFA. The essentials: as §2
For the compound `Nc1c(F)c(-c2ccc(Cl)cc2F)nc(C(=O)O)c1Cl` [Compound 189, 4-Amino-3-chloro-5-fluoro-6-(4-chloro-2-fluorophenyl)pyridine-2-carboxylic acid], the pest or weed control at 140 ppm was 100%.

Staying with this series, now noted: Setaria faberi, pre-emergence, 504 h, Table 5; rate 560 ppm; visual score after 3 weeks; read-out: Pre-emergent % control SETFA.
On to `Nc1c(Cl)c(C(=O)O)nc(-c2ccc(Cl)cc2)c1Cl` [Compound 198, 4-Amino-3,5-dichloro-6-(4-chlorophenyl)pyridine-2-carboxylic acid], for which the pest or weed control at 560 ppm turned out to be 90%.

Consider `COC(=O)c1nc(-c2ccc(Cl)cc2F)c(F)c(N)c1F` [Compound 93, Methyl 4-amino-3,5-difluoro-6-(4-chloro-2-fluorophenyl)pyridine-2-carboxylate], for which the pest or weed control at 560 ppm came to 50%.

A further series has as its system Crabgrass(large) (Digitaria sanguinalis). In words: Preemergence herbicidal activity, soil spray. The format is in vivo. To be noted: Digitaria sanguinalis, pre-emergence, 504 h; Table 5; rate 140 ppm; visual score after 3 weeks; read-out: Pre-emergent % control DIGSA. The essentials:
as §2
Take `Nc1c(F)c(-c2ccc(Cl)cc2F)nc(C(=O)O)c1Cl` [Compound 189, 4-Amino-3-chloro-5-fluoro-6-(4-chloro-2-fluorophenyl)pyridine-2-carboxylic acid]: the pest or weed control at 140 ppm came to 100%.

Still in this series, the particulars now being: Digitaria sanguinalis, pre-emergence, 504 h; Table 5; rate 560 ppm; visual score after 3 weeks; read-out: Pre-emergent % control DIGSA.
On to `Nc1c(Cl)c(C(=O)O)nc(-c2ccc(Cl)cc2)c1Cl` [Compound 198, 4-Amino-3,5-dichloro-6-(4-chlorophenyl)pyridine-2-carboxylic acid], for which the pest or weed control at 560 ppm stood at 80%.

On to `COC(=O)c1nc(-c2ccc(Cl)cc2F)c(F)c(N)c1F` [Compound 93, Methyl 4-amino-3,5-difluoro-6-(4-chloro-2-fluorophenyl)pyridine-2-carboxylate], for which the pest or weed control at 560 ppm was determined as 30%.

The next series has as its system Lambsquarter (Chenopodium album). Description: Preemergence herbicidal activity, soil spray. To be noted: Chenopodium album, pre-emergence, 504 h; Table 5; rate 140 ppm; visual score after 3 weeks; read-out: Pre-emergent % control CHEAL. The format is in vivo. Summed up: as §2
For `Nc1c(F)c(-c2ccc(Cl)cc2F)nc(C(=O)O)c1Cl` [Compound 189, 4-Amino-3-chloro-5-fluoro-6-(4-chloro-2-fluorophenyl)pyridine-2-carboxylic acid], the pest or weed control at 140 ppm came out at 100%.

The series is the same for the next values; noted with them: Chenopodium album, pre-emergence, 504 h; Table 5; rate 560 ppm; visual score after 3 weeks, 100 complete kill or no germination; read-out: Pre-emergent % control CHEAL.
`Nc1c(Cl)c(C(=O)O)nc(-c2ccc(Cl)cc2)c1Cl` [Compound 198, 4-Amino-3,5-dichloro-6-(4-chlorophenyl)pyridine-2-carboxylic acid]: the pest or weed control at 560 ppm turned out to be 100%.

Take `COC(=O)c1nc(-c2ccc(Cl)cc2F)c(F)c(N)c1F` [Compound 93, Methyl 4-amino-3,5-difluoro-6-(4-chloro-2-fluorophenyl)pyridine-2-carboxylate]: the pest or weed control at 560 ppm was found to be 100%.

Tested on in another series: not given
Assay: not given
Settings: not given
Broadly, the melting point is the temperature, or range, at which the solid turns liquid. For the compound `Nc1c(Cl)c(C(=O)O)nc(-c2ccc(Cl)cc2)c1Cl` [Compound 198, 4-Amino-3,5-dichloro-6-(4-chlorophenyl)pyridine-2-carboxylic acid], the melting point lay within 164 to 165 °C.

On to `Nc1c(F)c(-c2ccc(Cl)cc2F)nc(C(=O)O)c1Cl` [Compound 189, 4-Amino-3-chloro-5-fluoro-6-(4-chloro-2-fluorophenyl)pyridine-2-carboxylic acid], for which the melting point lay in the range of 154 to 155 °C.

Take `COC(=O)c1nc(-c2ccc(Cl)cc2F)c(F)c(N)c1F` [Compound 93, Methyl 4-amino-3,5-difluoro-6-(4-chloro-2-fluorophenyl)pyridine-2-carboxylate]: the melting point lay within 182 to 183 °C.
